Values joined by “and” are separate entries in the source; they are usually repeats but may differ in a detail not shown here. Identical values can stand only once. Records with an inconclusive call do not appear.

This is an account of results in PubChem BioAssay AID743417 (Broad Institute, 2014).

This assay has as its system Clone20 osteoblast Shn3 3'UTR firefly luciferase, 24 h. The assay can be described thus: Schnurri-3 3'UTR-luciferase signal suppressors – cell-based, Clone20 osteoblasts, luminescence, dry powder, set 2, dose response (AID 743417).
For orientation: AC50 means the midpoint of the concentration-response curve, whichever way the signal moves. `C[C@H]1CCC/C=C/[C@@H]2C[C@H](O)C[C@H]2[C@H](O)/C=C/C(=O)O1`: the AC50 was 3.15 µM and 2.2 µM.

`c1ccc(CN2CCN(c3ncnc4c3[nH]c3ccccc34)CC2)cc1`: the AC50 was 2.06 µM. For `OC(c1cc(-c2cccc(Cl)c2)nc2ccccc12)C1CCCCN1` (stereo not given), the AC50 is 10.8 µM. With `CNC(=O)c1nnsc1S(=O)c1ccc(Cl)cc1` (stereo not given) the figure was 2.02 µM; with `Cc1ccc(-c2ccc(/C=C3\C(=O)ON=C3c3ccccc3)o2)c([N+](=O)[O-])c1`, 3.3 µM; with `O=C(c1cnc(N2CCN(c3ccccn3)CC2)c2ccccc12)N1CCN(c2cccc(Cl)c2)CC1`, 1.99 µM. In the case of `O=C(CSc1c2c(nc3ccc(Cl)cc13)CCCC2)N1CCN(C(=O)c2ccco2)CC1` it was 3.75 µM; in that of `Cc1ccc(N2C(=O)c3cccc4c([N+](=O)[O-])ccc(c34)C2=O)c2cccnc12`, 5.68 µM; in that of `CCCOC(=O)c1ccc(OCC(O)Cn2c(C)nc3ccccc32)cc1` (stereo not given), 0.62 µM.

As for `Cc1ccc(C)c(NC(=O)CN(C)C(=O)c2cccc(S(=O)(=O)N3CCN(Cc4ccccc4)CC3)c2)c1`, the AC50 was 3.5 µM.

Turning to `O=S(=O)(c1ccc(Cl)cc1)N1CCN(Cc2ccc(O)c3ncccc23)CC1`, the AC50 was 3.01 µM. In the case of `O=C(Nc1ccc([N+](=O)[O-])cc1Cl)c1cc(Cl)ccc1O` it was 3 µM; in that of `Cc1cc(C)nc(SCC(=O)Nc2ccnc3ccccc23)n1`, 0.462 µM. `C=CCN(c1ccccc1)S(=O)(=O)c1cccc(C(=O)Nc2nc3ccccc3[nH]2)c1`: the AC50 is 10.1 µM. With `COc1ccc(-c2nc(-c3ccc(NC(=O)c4ccncc4)cc3)no2)cc1OC` the figure was 2.36 µM. For the compound `CC1Cc2ccccc2N1Cc1cccc(S(=O)(=O)N(C)C)c1` (stereo not given), the AC50 was 33 µM.

On to `CN(C)CC(C(=O)c1ccccc1)c1ccccc1` (stereo not given), for which the AC50 was 2.8 µM. With `CCOC(=O)c1c(CSc2ccc(CC)cc2)oc2ccc(O)c(CN(C)C)c12`, the AC50 is 3.05 µM.

For `COc1ccc(CCNc2cc(N3CCN(C(=O)c4ccccc4F)CC3)ccc2[N+](=O)[O-])cc1OC`, the AC50 was 1.26 µM. In the case of `CN(c1ccccc1)S(=O)(=O)c1ccc(NC(=O)c2nc(S(C)(=O)=O)ncc2Cl)cc1` it was 0.502 µM; in that of `CC(C)c1nnc(NC(=O)c2nc(S(=O)(=O)Cc3ccc(F)cc3)ncc2Cl)s1`, 2.83 µM. With `COc1ccc2c(c1)sc1nc(-c3ccccc3)cn12` the figure was 7.37 µM; with `COc1ccc(-n2ncc(Cl)c(Cl)c2=O)cc1`, 3.36 µM. On to `Cc1c(C(=O)Nc2cccc(C(F)(F)F)c2)oc2ccc(S(=O)(=O)N3CCOCC3)cc12`, for which the AC50 is 3.8 µM. Take `COc1cc2nc(N3CCN(c4cc(C)ccc4C)CC3)nc(N)c2cc1OC`: the AC50 is 5.44 µM. With `O=c1oc2ccccc2cc1-c1cn2ccccc2n1` the figure was 3.64 µM; with `CCCCC(=O)NC(c1ccc(N(C)C)cc1)c1ccc2cccnc2c1O` (stereo not given), 0.98 µM; with `Cc1ccc(C(=O)N2c3ccccc3N(Cc3ccccc3)C(=O)C2(C)C)cc1`, 6.92 µM. In the case of `COC(=O)/C=C/S(=O)(=O)c1ccc(NC(C)=O)cc1` it was 7.3 µM. In the case of `CC(=O)Nc1cccc(NC(=O)CSc2ncc(-c3ccc(Cl)cc3)n2Cc2ccco2)c1` it was 4.95 µM.
